Consider one molecule from patent US20260137711A1, “COMBINATION THERAPY FOR CANCER” (NATIONAL UNIVERSITY OF IRELAND, GALWAY, priority 2022, published 2026).

Entries after “also recorded” stand apart in the source; their conditions may differ.

In experiment [1] the test system is MCF10A cells. As to the kind of experiment: Long-term cell proliferation assay, crystal violet staining. The settings on record: 7 days. The experiment is classed as cell-based, human. On the procedure: (a and b) MCF10A cells were plated at equal low density and then either mock treated or treated with 31 nM BI-1347, in the presence or absence of XL413 at a doses of (a) 1.25 μM or (b) 10 μM over a 7 day period. Representative images of crystal violet-stained cells are shown alongside quantitation of crystal violet intensity normalised to the untreated control.
Briefly, MCF10A cells were mock-treated or treated in the continued presence of a dual-specificity CDK8/CDK19 inhibitor, BI-1347, in the presence or absence of XL413 at two different concentrations (1.25 μM and 10 μM) for a 7-day period. Relative cell proliferation was estimated by staining cells with crystal violet and measuring staining intensities. […] Importantly the addition of BI-1347 to XL413 caused a further reduction in cell number with staining intensity decreasing by 70% and 95% respectively.
MCF10A cells were seeded at 4,000 cells per well of a 6 well plate and after 24 hours were treated with inhibitors before being incubated for 7 days at 37° C. with 5% CO2. Media was removed from the cells which were then washed with PBS and air dried before being fixed with 100% methanol for 1 hour. Following removal of methanol the plates were air-dried, stained with crystal violet staining solution (0.2% crystal violet, 25% methanol) for 1 hour at room temperature, washed with ddH2O and air-dried. Plates were scanned using a HP Scanjet 4050, to generate images of crystal violet stained cells, and crystal violet staining intensity was acquired using the Odyssey infrared imaging system and Image Studio software (LI-COR Biosciences).

The subject of experiment [2] is MCF10A cells. As to the kind of experiment: Flow cytometry of cell cycle distribution and DNA synthesis (EdU/DAPI). The experiment is classed as cell-based, human. The note with it: for cell cycle distribution: 24 hours. On the procedure:
(c) A typical profile obtained by flow cytometry of MCF10A cells labelled with EdU and DAPI that indicates the gating applied in order to determine the percentage of cells with sub-G1 DNA content (sub-G1), G1 cells (G1), replicating early-mid S phase cells (Early-Mid S/EdU+), replicating mid-late S phase cells (Mid-Late S/EdU+), cells with S phase DNA content but not replicating (2n<& <4n/EdU−), and cells either in G2 or mitosis (G2/M).(d-f) MCF10A cells were mock treated or treated with 10 μM XL413, in the presence or absence of increasing concentrations of the CDK8 inhibitor BI-1347, for 24 hours. (d) Cells were labelled with EdU for last 30 minutes and DNA synthesis, DNA content and cell cycle distribution were assessed by flow cytometry and analysed using the gating strategy described in above (FIG. 2c). (e) Distribution of cells in the cell cycle. (f) Fluorescence intensity, proportional to EdU incorporation, in individual S phase cells. Long and short horizontal black lines indicate the median and the interquartile range, respectively, extending from the 25th to the 75th percentile for ˜3,810 cells for each condition. Data is from a single experiment.
FIG. 3: CDK8 activity is required for efficient DNA synthesis under conditions of limited CDC7 kinase activity (a-c) MCF10A cells were mock treated or treated with 31 nM BI-1347, in the presence or absence of increasing concentrations of the CDC7 inhibitors, XL413 (a-c) and TAK-931 (d-f), for 24 hours. (a and d) Cells were labelled with EdU for last 30 minutes and DNA synthesis, DNA content and cell cycle distribution were assessed by flow cytometry and analysed using the gating strategy described in FIG. 2c.c (b and e) distribution of cells in the cell cycle. (c and f) Fluorescence intensity, proportional to EdU incorporation, in individual S phase cells. Long and short horizontal black lines indicate the median and the interquartile range, respectively, extending from the 25th to the 75th percentile for ˜4,190 cells for each condition. Data is from a single experiment.
To analyse the cell cycle and DNA synthesis, nascent DNA was labelled by incubating cells with 10 μM EdU for either 20 or 30 minutes prior to harvest, washing with PBS, and then by resuspension in PBS containing 70% EtOH for 1 hour at −20° C. After a PBS wash, incorporated EdU was labelled by incubating cells in click reaction buffer (PBS containing 10 μM 6-Carboxyfluorescine-TEG-azide, 10 mM Sodium-L-ascorbate, 2 mM Copper-II-Sulphate) for 30 minutes protected from light. Cells were washed in PBS containing 1% BSA, 5% Tween 20 and then DNA stained in PBS containing 1% BSA and 1 μg/ml DAPI. All washes involve: centrifugation at 400×g for 5 minutes, removal of supernatant from pellet, resuspension in the appropriate buffer, recentrifugation and removal of supernatant from the pellet prior to the next step.
Fluorescence intensity data for 6-Carboxyfluorescine (488_530_30 nm) and DAPI (405_450_50 nm) were acquired for 10,000 single cells on a BD FACS Canto II and analysed using FlowJo software. To further analyse fluorescence intensity, proportional to EdU incorporation, for individual cells, gates were applied on DAPI-EdU biparametric dot plots to select for EdU positive S phase cells using FlowJo. According to the required analysis these gates included either all S phase cells, or only early or late S phase cells. Fluorescence intensity (488_530_30) values per cell were exported and plotted as scatter dot plots using GraphPad prism. For comparisons of mean fluorescence intensity of a cell population across three biological repeat experiments, all fluorescence intensity values were normalised to the maximum fluorescence intensity of the untreated control sample of each respective experiment to account for absolute differences in EdU staining. […]
For orientation: A flow cytometer gives signals particle by particle.

Turning to `Cl.O=c1[nH]c([C@@H]2CCCN2)nc2c1oc1ccc(Cl)cc12` [XL413], the “relative intensity reduction (crystal violet)” value in experiment [1] (1.25 μM XL413 alone) is ~15%; in experiment [1] (10 μM XL413 alone), 70%. In addition, in experiment [2], the “rate of DNA synthesis” value is “strongly reduced; also recorded: much more profound decrease”. For the same molecule, the “rate of DNA synthesis of S phase cells” value in experiment [2] is “corresponding decrease”. Moreover, the cell cycle distribution entry was “accumulation of cells in mid to late S phase” in experiment [2] (10 μM XL413 alone); “dose-dependent accumulation of mid-late S phase cells” in experiment [2] (CDC7 inhibitor alone at increasing concentrations, absence of CDK8/CDK19i); “more pronounced accumulation of cells in mid-late S phase” in experiment [2] (CDC7 inhibitor at increasing concentrations together with the CDK8/CDK19 inhibitor (31 nM BI-1347), all doses tested).
